Results taken from ChEMBL document CHEMBL3885881, “DrugMatrix”.

Organism: Rattus norvegicus
Test: DrugMatrix - Regimen: Daily Repeat
Format: toxicity, organism-based, Sprague-Dawley
Set-up: regimen Daily Repeat, gender Male, age 6-8 weeks
Conditions: in vivo, po, route oral GAVAGE, vehicle 100 % WATER; for ABSOLUTE BASOPHIL / ABSOLUTE EOSINOPHIL / ABSOLUTE LYMPHOCYTE / ABSOLUTE MONOCYTE / ABSOLUTE SEGMENTED NEUTROPHIL / BASOPHIL / EOSINOPHIL / ERYTHROCYTE COUNT / HEMATOCRIT / HEMOGLOBIN / LEUKOCYTE COUNT / LYMPHOCYTE / MEAN CORPUSCULAR HEMOGLOBIN / MEAN CORPUSCULAR HEMOGLOBIN CONCENTRATION / MEAN CORPUSCULAR VOLUME / MONOCYTE / NEUTROPHIL / NUCLEATED RED BLOOD CELLS / PLATELET COUNT: tissue Blood; for ALANINE AMINOTRANSFERASE / ALBUMIN / ALKALINE PHOSPHATASE / ASPARTATE AMINOTRANSFERASE / BLOOD UREA NITROGEN / CARBON DIOXIDE / CHLORIDE / CHOLESTEROL / CREATINE PHOSPHOKINASE / CREATININE / GLUCOSE / LACTATE DEHYDROGENASE / LIPASE / PHOSPHORUS / POTASSIUM / SODIUM / TOTAL BILIRUBIN / TOTAL PROTEIN / URIC ACID: tissue Plasma
[1] = 0 mg/kg, 72 h, dose level Control, time 3 day
[2] = 0 mg/kg, 120 h, dose level Control, time 5 day
[3] = 30 mg/kg, 72 h, dose level Low, time 3 day

## CC1COc2c(N3CCN(C)CC3)c(F)cc3c(=O)c(C(=O)O)cn1c23 (centres undefined) [OFLOXACIN]
[1]
  ABSOLUTE BASOPHIL: 0 CELLS/uL
  ABSOLUTE EOSINOPHIL: 0 CELLS/uL
  ABSOLUTE LYMPHOCYTE: 10386.33 CELLS/uL
  ABSOLUTE MONOCYTE: 88.5 CELLS/uL
  ABSOLUTE SEGMENTED NEUTROPHIL: 1008.5 CELLS/uL
  BASOPHIL: 0%
  EOSINOPHIL: 0%
  ERYTHROCYTE COUNT: 5.16 x10E6/uL
  HEMATOCRIT: 32.43%
  HEMOGLOBIN: 12.98 G/DL
  LEUKOCYTE COUNT: 11.48 x10E3/uL
  LYMPHOCYTE: 92.33%
  MEAN CORPUSCULAR HEMOGLOBIN: 25.23 pg
  MEAN CORPUSCULAR HEMOGLOBIN CONCENTRATION: 40.08 G/DL
  MEAN CORPUSCULAR VOLUME: 62.95 fL
  MONOCYTE: 0.67%
  NEUTROPHIL: 7%
  NUCLEATED RED BLOOD CELLS: 0 /100WBC
  PLATELET COUNT: 1016.67 x10E3/uL
  ALANINE AMINOTRANSFERASE: 62.17 u/L
  ALBUMIN: 3.95 G/DL
  ALKALINE PHOSPHATASE: 363.5 u/L
  ASPARTATE AMINOTRANSFERASE: 118 u/L
  BLOOD UREA NITROGEN: 14.5 mg/dL
  CARBON DIOXIDE: 22.83 mmol/L
  CHLORIDE: 100.67 MEQ/L
  CHOLESTEROL: 66 mg/dL
  CREATINE PHOSPHOKINASE: 1308.83 u/L
  CREATININE: 0.22 mg/dL
  GLUCOSE: 187.5 mg/dL
  LACTATE DEHYDROGENASE: 380.17 u/L
  LIPASE: 16.17 u/L
  PHOSPHORUS: 14.27 mg/dL
  POTASSIUM: 6.8 MEQ/L
  SODIUM: 142.53 MEQ/L
  TOTAL BILIRUBIN: 0.2 mg/dL
  TOTAL PROTEIN: 5.68 G/DL
  URIC ACID: 2.87 mg/dL
[2]
  ABSOLUTE BASOPHIL: 0 CELLS/uL
  ABSOLUTE EOSINOPHIL: 80 CELLS/uL
  ABSOLUTE LYMPHOCYTE: 13301.33 CELLS/uL
  ABSOLUTE MONOCYTE: 180.83 CELLS/uL
  ABSOLUTE SEGMENTED NEUTROPHIL: 1187.83 CELLS/uL
  BASOPHIL: 0%
  EOSINOPHIL: 0.5%
  ERYTHROCYTE COUNT: 5.54 x10E6/uL
  HEMATOCRIT: 35.65%
  HEMOGLOBIN: 14.22 G/DL
  LEUKOCYTE COUNT: 14.75 x10E3/uL
  LYMPHOCYTE: 90.67%
  MEAN CORPUSCULAR HEMOGLOBIN: 25.65 pg
  MEAN CORPUSCULAR HEMOGLOBIN CONCENTRATION: 39.88 G/DL
  MEAN CORPUSCULAR VOLUME: 64.35 fL
  MONOCYTE: 1%
  NEUTROPHIL: 7.83%
  NUCLEATED RED BLOOD CELLS: 0.17 /100WBC
  PLATELET COUNT: 1285.33 x10E3/uL
  ALANINE AMINOTRANSFERASE: 51.67 u/L
  ALBUMIN: 4.08 G/DL
  ALKALINE PHOSPHATASE: 391.5 u/L
  ASPARTATE AMINOTRANSFERASE: 99.5 u/L
  BLOOD UREA NITROGEN: 15.5 mg/dL
  CARBON DIOXIDE: 28.33 mmol/L
  CHLORIDE: 101.83 MEQ/L
  CHOLESTEROL: 67.83 mg/dL
  CREATINE PHOSPHOKINASE: 771.33 u/L
  CREATININE: 0.23 mg/dL
  GLUCOSE: 156.5 mg/dL
  LACTATE DEHYDROGENASE: 544.33 u/L
  LIPASE: 10.17 u/L
  PHOSPHORUS: 12.03 mg/dL
  POTASSIUM: 6.81 MEQ/L
  SODIUM: 144.13 MEQ/L
  TOTAL BILIRUBIN: 0.22 mg/dL
  TOTAL PROTEIN: 6 G/DL
  URIC ACID: 2.18 mg/dL
[3]
  ABSOLUTE BASOPHIL: 0 CELLS/uL
  ABSOLUTE EOSINOPHIL: 95.33 CELLS/uL
  ABSOLUTE LYMPHOCYTE: 12358.67 CELLS/uL
  ABSOLUTE MONOCYTE: 136.33 CELLS/uL
  ABSOLUTE SEGMENTED NEUTROPHIL: 1043 CELLS/uL
  BASOPHIL: 0%
  EOSINOPHIL: 0.67%
  ERYTHROCYTE COUNT: 5.52 x10E6/uL
  HEMATOCRIT: 36.03%
  HEMOGLOBIN: 13.97 G/DL
  LEUKOCYTE COUNT: 13.63 x10E3/uL
  LYMPHOCYTE: 90.67%
  MEAN CORPUSCULAR HEMOGLOBIN: 25.4 pg
  MEAN CORPUSCULAR HEMOGLOBIN CONCENTRATION: 38.77 G/DL
  MEAN CORPUSCULAR VOLUME: 65.33 fL
  MONOCYTE: 1%
  NEUTROPHIL: 7.67%
  NUCLEATED RED BLOOD CELLS: 0 /100WBC
  PLATELET COUNT: 1082 x10E3/uL
  ALANINE AMINOTRANSFERASE: 46.67 u/L
  ALBUMIN: 4.03 G/DL
  ALKALINE PHOSPHATASE: 420.67 u/L
  ASPARTATE AMINOTRANSFERASE: 75 u/L
  BLOOD UREA NITROGEN: 13.33 mg/dL
  CARBON DIOXIDE: 28 mmol/L
  CHLORIDE: 100.33 MEQ/L
  CHOLESTEROL: 76.33 mg/dL
  CREATINE PHOSPHOKINASE: 165.33 u/L
  CREATININE: 0.19 mg/dL
  GLUCOSE: 159 mg/dL
  LACTATE DEHYDROGENASE: 114 u/L
  LIPASE: 10.67 u/L
  PHOSPHORUS: 13.07 mg/dL
  POTASSIUM: 6.69 MEQ/L
  SODIUM: 143.73 MEQ/L
  TOTAL BILIRUBIN: 0.2 mg/dL
  TOTAL PROTEIN: 5.87 G/DL
  URIC ACID: 1.23 mg/dL
